Data from PMC9147171, “Pharmacokinetic/Pharmacodynamic Evaluation of a New Purine-2,6-Dione Derivative in Rodents with Experimental Autoimmune Diseases” (Pharmaceutics, 2022).

Columns and labels:
PDE4B = test: PDE inhibition assay, PDE4B (previous investigations); assay type: biochemical; settings: ratio of IC50 values, vs GRMS-55
[1] = test system: collagen-induced arthritis (CIA) in rats; test: Collagen-induced arthritis (CIA) in rats, PK/PD arthritis progression model; assay type: in vivo, female Lewis rats
Protocol: Female Lewis rats were subcutaneously injected at the base of the tail with the emulsion prepared according to the protocol supplied by Chondrex, Inc. (Redmond, WA, USA) at days 0 and 7 of the experiment. To obtain the emulsion, porcine collagen type II (Chondrex, Inc.) (2 mg/mL) in 0.05 M acetic acid was emulsified with incomplete Freund’s adjuvant (Sigma-Aldrich, St. Louis, MO, USA) using a homogenizer with a small blade (LabGen 125, Cole-Parmer, Vernon Hills, IL, USA). On day 20, the animals that developed symptoms of arthritis, i.e., paw swelling above 150% of day 0, were randomly divided into two groups: the control group receiving vehicle alone (n = 6) and the study group treated with the investigated compound at a dose of 20 mg·kg^−1, IP once daily for 21 days (n = 6). Relative paw edema of arthritic rats was measured using a digital caliper according to the procedure described by Earp et al. up to 40 days after the first immunization and then the animals were sacrificed. In addition, the body weight of animals was monitored. After randomization on day 20, using the Mann–Whitney U test, it was verified that there is no significant difference in paw size between the groups.
A previously developed PK/PD model of arthritis progression in rats was utilized in this study (Figure 2). The model was described in detail in our previous publication. Originally, this model was used to assess and compare the effects of a PDE4-selective inhibitor rolipram and two non-selective PDE inhibitors, namely GRMS-55 and lisofylline in CIA in female Lewis rats.
Briefly, the model assumes that PDE inhibitors act by suppressing the production of a precursor of arthritis progression. This is in line with the actual mechanism of anti-inflammatory action of PDE inhibitors that exert their effects by inhibiting the transcription of pro-inflammatory mediators, which participate in the arthritis development. […] Therefore, it was feasible to compare the potency of compound 34 and other PDE inhibitors that were evaluated in our previous study. […]

hrPDE1B = target: T1, hrPDE1B (Homo sapiens, UniProt Q01064); test: PDE-Glo catalytic activity assay, PDE1B; assay type: biochemical
T1 construct: purchased SignalChem, Richmond, Canada
T1 sequence (Q01064 whole entry): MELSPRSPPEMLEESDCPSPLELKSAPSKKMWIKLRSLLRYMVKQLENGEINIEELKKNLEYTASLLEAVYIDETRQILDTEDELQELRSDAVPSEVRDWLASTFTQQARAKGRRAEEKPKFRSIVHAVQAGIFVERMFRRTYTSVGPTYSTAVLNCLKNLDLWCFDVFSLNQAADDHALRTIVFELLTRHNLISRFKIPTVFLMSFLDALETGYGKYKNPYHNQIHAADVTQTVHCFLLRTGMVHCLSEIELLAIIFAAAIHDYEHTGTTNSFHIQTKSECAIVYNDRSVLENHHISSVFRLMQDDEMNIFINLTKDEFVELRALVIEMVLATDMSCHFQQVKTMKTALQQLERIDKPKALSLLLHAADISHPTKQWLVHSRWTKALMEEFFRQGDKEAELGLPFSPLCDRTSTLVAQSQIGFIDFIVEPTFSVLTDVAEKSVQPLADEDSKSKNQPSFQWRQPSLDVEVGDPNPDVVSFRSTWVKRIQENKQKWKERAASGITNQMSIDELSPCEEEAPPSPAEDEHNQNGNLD
Protocol: The inhibitory activity of compound 34 against hrPDE1B and hrPDE3A (SignalChem, Richmond, Canada) was assessed using the PDE-Glo™ catalytic activity assay (Promega Corporation, Madison, WI, USA). It was performed on 384-well plates according to manufacturer’s instructions with slight modifications. Solutions of both PDEs were prepared by diluting their stock solutions in the PDE-Glo™ Reaction Buffer and aliquots of 6.5 μL were added to the wells. A stock solution of the tested compound was prepared in DMSO at a concentration of 10 mM and serially diluted with the same solvent. The obtained solutions were further diluted with PDE-Glo™ Reaction Buffer (1:5, v/v) and aliquots of 1 μL were transferred to the respective wells. Then, the mixture was incubated for 10 min at 30 °C on a heated plate shaker (Grant Instruments, Cambridge, United Kingdom). The reaction was started by the addition of 2.5 μL of a 0.2 μM cAMP solution to each well and the plate was incubated for 10 min at 30 °C on a heated plate shaker. Moreover, for each series, respective control reactions were performed: no-substrate, no-enzyme negative control reactions; no-enzyme positive control reactions containing substrate; and no-inhibitor positive control reactions containing both the substrate and PDE. After incubation, the reaction was stopped by adding 2.5 μL of the PDE-Glo™ Termination Buffer. A volume of 2.5 μL of the PDE-Glo™ Detection Buffer was transferred to each well and the plate was incubated for 20 min at room temperature. Finally, an aliquot of 10 μL of the PDE-Glo Kinase® Reagent was added to the wells. The plate was incubated for 10 min at room temperature and luminescence was measured with a luminometer (BMG Labtech, Ortenberg, Germany). For each inhibitor concentration, four independent measurements were performed. The resulting data were expressed as percent of an uninhibited control and plotted against the inhibitor concentration. The IC50 values were estimated by nonlinear regression using ADAPT5 software (BMSR, Los Angeles, CA, USA).

IC50_Paw in suppressing paw edema, times lower than that for rolipram ([1]; PK/PD model, rolipram value from ref 28): 10 times
IC50_Paw, times lower than that for GRMS-55 ([1]; same PK/PD model, GRMS-55 value from ref 28): around 260 times
IC50 (hrPDE1B; human recombinant PDE1B, CV% in brackets, read-out: IC50 (µM) Against PDE Isoform (CV%) PDE1B): 0.21 µM
times more potent than GRMS-55 in inhibiting PDE1B (hrPDE1B; ratio of IC50 values, vs GRMS-55): 12 times
inhibitory activity against PDE1B, times higher than that of vinpocetine (hrPDE1B; ratio of IC50 values, vs vinpocetine): around 36 times
SMILES: Cn1c(=O)c2c(nc(NCCc3ccccc3)n2CCCC(=O)NN=Cc2ccc(O)c(O)c2O)n(C)c1=O [Compound 34, 4-(1,3-dimethyl-2,6-dioxo-8-(phenethylamino)-2,3,6,7-tetrahydro-1H-purin-7-yl)-N′-(2,3,4-trihydroxybenzylidene)butanehydrazide]
times more active as a PDE4B inhibitor compared to GRMS-55 (PDE4B): 19 times
Relative body weight, experimental vs control group ([1]; 20 mg·kg^−1 IP once daily for 21 days): not significantly different
